According to US7138361B2, “Herbicidal heterocycles” (E. I. du Pont de Nemours and Company, priority 2000, dated 2006):

How the values were obtained:
Assay type in all cases: in vivo
[1] = test system: velvetleaf (Abutilon theophrasti); assay: Test B postemergence; settings: Rate 125 g/ha, scale 0 to 100, 0 no effect, 100 complete control
Procedure, shortened: (§1)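 Post-treatment, species sat 13–15 days under greenhouse conditions before visual scoring against controls, 0 (no effect) through 100 (complete control). Application preemergence to sown seeds or postemergence at 1- to 4-leaf stage, using a non-phytotoxic solvent/surfactant formulation.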

[2] = test system: wild oat (Avena fatua); assay: Test B postemergence; settings: Rate 125 g/ha, scale 0 to 100, 0 no effect, 100 complete control
Procedure, shortened: as §1

[3] = test system: corn (Zea mays); assay: Test B postemergence
Procedure, shortened: as §1

[4] = test system: wheat (Triticum aestivum); assay: Test B postemergence; settings: Rate 125 g/ha, scale 0 to 100, 0 no effect, 100 complete control
Procedure, shortened: as §1

[5] = test system: blackgrass (Alopecurus myosuroides); assay: Test B postemergence
Procedure, shortened: as §1

[6] = test system: lambsquarters (Chenopodium album); assay: Test C preemergence; settings: for Plant response rating (0 to 100), Lambsquarters: Rate 500 g/ha, visual evaluation after 12 to 14 days
Procedure, shortened: (§2)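 Visual injury scores of 0–100, with 100 meaning complete control, were given relative to controls after 12–14 days in the greenhouse. Treatments used a surfactant-containing non-phytotoxic solvent formulation, sprayed on seeded pots preemergence or on 1–4-leaf plants of 2–18 cm postemergence.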

[7] = test system: yellow nutsedge (Cyperus esculentus); assay: Test C preemergence; settings: for Plant response rating (0 to 100), Nutsedge: Rate 500 g/ha, visual evaluation after 12 to 14 days
Procedure, shortened: as §2

[8] = test system: bermudagrass (Cynodon dactylon); assay: Test C preemergence; settings: for Plant response rating (0 to 100 where 0 is no effect and 100 is complete control), Bermudagrass: Rate 500 g/ha, visual evaluation after 12 to 14 days
Procedure, shortened: as §2

[9] = test system: velvetleaf (Abutilon theophrasti); assay: Test C preemergence; settings: for Plant response rating (0 to 100), Velvetleaf: Rate 500 g/ha, visual evaluation after 12 to 14 days
Procedure, shortened: as §2

[10] = test system: crabgrass (Digitaria sanguinalis); assay: Test C preemergence; settings: for Plant response rating (0 to 100), Crabgrass: Rate 500 g/ha, visual evaluation after 12 to 14 days
Procedure, shortened: as §2

[11] = test system: Sunflower; assay: Test C preemergence; settings: Rate 125 g/ha; scale 0 to 100, 0 no effect, 100 complete control
[12] = test system: corn (Zea mays); assay: Test C preemergence; settings: for Plant response rating (0 to 100), Corn: Rate 500 g/ha, visual evaluation after 12 to 14 days
Procedure, shortened: as §2

[13] = test system: giant foxtail (Setaria faberii); assay: Test C preemergence; settings: for Plant response rating (0 to 100), Foxtail, Giant: Rate 500 g/ha, visual evaluation after 12 to 14 days
Procedure, shortened: as §2

[14] = test system: soybean (Glycine max); assay: Test C preemergence; settings: for Plant response rating (0 to 100), Soybean: Rate 500 g/ha, visual evaluation after 12 to 14 days
Procedure, shortened: as §2

[15] = test system: pigweed (Amaranthus retroflexus); assay: Test C preemergence; settings: for Plant response rating (0 to 100), Pigweed: Rate 500 g/ha, visual evaluation after 12 to 14 days
Procedure, shortened: as §2

[16] = test system: morningglory (Ipomoea hederacea); assay: Test C preemergence; settings: for Plant response rating (0 to 100), Morningglory: Rate 500 g/ha, visual evaluation after 12 to 14 days
Procedure, shortened: as §2

[17] = test system: woolly cupgrass (Eriochloa villosa); assay: Test C preemergence; settings: for Plant response rating (0 to 100), Cupgrass, Woolly: Rate 500 g/ha, visual evaluation after 12 to 14 days
Procedure, shortened: as §2

[18] = test system: Surinam grass (Brachiaria decumbens); assay: Test C preemergence; settings: for Plant response rating (0 to 100), Surinam grass: Rate 500 g/ha, visual evaluation after 12 to 14 days
Procedure, shortened: as §2

[19] = test system: goosegrass (Eleusine indica); assay: Test C preemergence; settings: for Plant response rating (0 to 100), Goosegrass: Rate 500 g/ha, visual evaluation after 12 to 14 days
Procedure, shortened: as §2

[20] = test system: johnsongrass (Sorghum halepense); assay: Test C preemergence; settings: for Plant response rating (0 to 100), Johnsongrass: Rate 500 g/ha, visual evaluation after 12 to 14 days
Procedure, shortened: as §2

[21] = Rate 125 g/ha, scale 0 to 100, 0 no effect, 100 complete control
[22] = Rate 500 g/ha, scale 0 to 100, 0 is no effect, 100 is complete control, 13 to 15 days
[23] = preemergence, Rate 62 g/ha, scale 0 to 100
[24] = preemergence, Rate 250 g/ha, scale 0 to 100, 0 no effect, 100 complete control

CCC(CC)c1ccn(C2OCN(c3cccc(OC(F)F)c3)C2=O)n1 (centres unmarked) [Compound 131]
Plant response rating, Velvetleaf [1]: 0
Plant response rating, Wild Oat [2]: 20
Plant response rating, Corn [3, 21]: 0
Plant response rating, Corn [3, 22]: 20
Plant response rating, Wheat [4]: 0
Plant response rating, Blackgrass [5, 21]: 0
Plant response rating, Blackgrass [5, 22]: 0
Plant response rating, Lambsquarters [6, 21]: 100
Plant response rating, Lambsquarters [6, 23]: 100
Plant response rating (0 to 100), Lambsquarters ([6]; preemergence): 100
Plant response rating, Lambsquarters [6, 24]: 100
Plant response rating, Nutsedge [7, 21]: 90
Plant response rating, Nutsedge [7, 23]: 0
Plant response rating (0 to 100), Nutsedge ([7]; preemergence): 100
Plant response rating, Nutsedge [7, 24]: 90
Plant response rating, Bermudagrass [8, 21]: 100
Plant response rating, Bermudagrass [8, 23]: 100
Plant response rating (0 to 100 where 0 is no effect and 100 is complete control), Bermudagrass ([8]; preemergence): 100
Plant response rating, Bermudagrass [8, 24]: 100
Plant response rating, Velvetleaf [9, 21]: 30
Plant response rating, Velvetleaf [9, 23]: 20
Plant response rating (0 to 100), Velvetleaf ([9]; preemergence): 70
Plant response rating, Velvetleaf [9, 24]: 70
Plant response rating, Crabgrass [10, 21]: 100
Plant response rating, Crabgrass [10, 23]: 100
Plant response rating (0 to 100), Crabgrass ([10]; preemergence): 100
Plant response rating, Crabgrass [10, 24]: 100
Plant response rating, Sunflower [11]: 20
Plant response rating, Corn [12, 21]: 100
Plant response rating, Corn [12, 23]: 100
Plant response rating (0 to 100), Corn ([12]; preemergence): 100
Plant response rating, Corn [12, 24]: 100
Plant response rating, Foxtail, Giant [13, 21]: 100
Plant response rating, Foxtail, Giant [13, 23]: 90
Plant response rating (0 to 100), Foxtail, Giant ([13]; preemergence): 100
Plant response rating, Foxtail, Giant [13, 24]: 100
Plant response rating, Soybean [14, 21]: 0
Plant response rating, Soybean [14, 23]: 0
Plant response rating (0 to 100), Soybean ([14]; preemergence): 40
Plant response rating, Soybean [14, 24]: 40
Plant response rating, Pigweed [15, 21]: 90
Plant response rating, Pigweed [15, 23]: 90
Plant response rating (0 to 100), Pigweed ([15]; preemergence): 100
Plant response rating, Pigweed [15, 24]: 100
Plant response rating, Morningglory [16, 21]: 60
Plant response rating, Morningglory [16, 23]: 0
Plant response rating (0 to 100), Morningglory ([16]; preemergence): 90
Plant response rating, Morningglory [16, 24]: 90
Plant response rating, Cupgrass, Woolly [17, 21]: 100
Plant response rating, Cupgrass, Woolly [17, 23]: 100
Plant response rating (0 to 100), Cupgrass, Woolly ([17]; preemergence): 100
Plant response rating, Cupgrass, Woolly [17, 24]: 100
Plant response rating, Surinam grass [18, 21]: 100
Plant response rating, Surinam grass [18, 23]: 100
Plant response rating (0 to 100), Surinam grass ([18]; preemergence): 100
Plant response rating, Surinam grass [18, 24]: 100
Plant response rating, Goosegrass [19, 21]: 100
Plant response rating, Goosegrass [19, 23]: 100
Plant response rating (0 to 100), Goosegrass ([19]; preemergence): 100
Plant response rating, Goosegrass [19, 24]: 100
Plant response rating, Johnsongrass [20, 21]: 70
Plant response rating, Johnsongrass [20, 23]: 30
Plant response rating (0 to 100), Johnsongrass ([20]; preemergence): 100
Plant response rating, Johnsongrass [20, 24]: 80

COc1cc(N2CCC(n3ccc(C(C)(C)C)n3)C2=O)ccc1Cl (centres unmarked) [Compound 117]
Plant response rating, Velvetleaf [1]: 70
Plant response rating, Wild Oat [2]: 40
Plant response rating, Corn [3, 21]: 0
Plant response rating, Corn [3, 22]: 0
Plant response rating, Wheat [4]: 30
Plant response rating, Blackgrass [5, 21]: 0
Plant response rating, Blackgrass [5, 22]: 0
Plant response rating, Lambsquarters [6, 21]: 100
Plant response rating, Lambsquarters [6, 23]: 100
Plant response rating (0 to 100), Lambsquarters ([6]; preemergence): 100
Plant response rating, Lambsquarters [6, 24]: 100
Plant response rating, Nutsedge [7, 21]: 0
Plant response rating, Nutsedge [7, 23]: 0
Plant response rating (0 to 100), Nutsedge ([7]; preemergence): 0
Plant response rating, Nutsedge [7, 24]: 0
Plant response rating, Bermudagrass [8, 21]: 100
Plant response rating, Bermudagrass [8, 23]: 100
Plant response rating (0 to 100 where 0 is no effect and 100 is complete control), Bermudagrass ([8]; preemergence): 100
Plant response rating, Bermudagrass [8, 24]: 100
Plant response rating, Velvetleaf [9, 21]: 90
Plant response rating, Velvetleaf [9, 23]: 80
Plant response rating (0 to 100), Velvetleaf ([9]; preemergence): 100
Plant response rating, Velvetleaf [9, 24]: 100
Plant response rating, Crabgrass [10, 21]: 100
Plant response rating, Crabgrass [10, 23]: 100
Plant response rating (0 to 100), Crabgrass ([10]; preemergence): 100
Plant response rating, Crabgrass [10, 24]: 100
Plant response rating, Sunflower [11]: 40
Plant response rating, Corn [12, 21]: 30
Plant response rating, Corn [12, 23]: 0
Plant response rating (0 to 100), Corn ([12]; preemergence): 50
Plant response rating, Corn [12, 24]: 45
Plant response rating, Foxtail, Giant [13, 21]: 0
Plant response rating, Foxtail, Giant [13, 23]: 100
Plant response rating (0 to 100), Foxtail, Giant ([13]; preemergence): 100
Plant response rating, Foxtail, Giant [13, 24]: 100
Plant response rating, Soybean [14, 21]: 100
Plant response rating, Soybean [14, 23]: 100
Plant response rating (0 to 100), Soybean ([14]; preemergence): 100
Plant response rating, Soybean [14, 24]: 100
Plant response rating, Pigweed [15, 21]: 100
Plant response rating, Pigweed [15, 23]: 100
Plant response rating (0 to 100), Pigweed ([15]; preemergence): 30
Plant response rating, Pigweed [15, 24]: 100
Plant response rating, Morningglory [16, 21]: 10
Plant response rating, Morningglory [16, 23]: 0
Plant response rating (0 to 100), Morningglory ([16]; preemergence): 100
Plant response rating, Morningglory [16, 24]: 100
Plant response rating, Cupgrass, Woolly [17, 21]: 100
Plant response rating, Cupgrass, Woolly [17, 23]: 80
Plant response rating (0 to 100), Cupgrass, Woolly ([17]; preemergence): 100
Plant response rating, Cupgrass, Woolly [17, 24]: 100
Plant response rating, Surinam grass [18, 21]: 10
Plant response rating, Surinam grass [18, 23]: 10
Plant response rating (0 to 100), Surinam grass ([18]; preemergence): 100
Plant response rating, Surinam grass [18, 24]: 75
Plant response rating, Goosegrass [19, 21]: 100
Plant response rating, Goosegrass [19, 23]: 100
Plant response rating (0 to 100), Goosegrass ([19]; preemergence): 100
Plant response rating, Goosegrass [19, 24]: 100
Plant response rating, Johnsongrass [20, 21]: 50
Plant response rating, Johnsongrass [20, 23]: 45
Plant response rating (0 to 100), Johnsongrass ([20]; preemergence): 90
Plant response rating, Johnsongrass [20, 24]: 50
